Publication PMC8333309, “Mechanism of LolCDE as a molecular extruder of bacterial triacylated lipoproteins” (Nature Communications, 2021)

Biological target: T1, LolCDE (Escherichia coli, UniProt P75957)
T1 construct: gene lolD; co-expressed in E. coli BL21(DE3); purified in DDM, reconstituted into MSP1D1/POPG nanodiscs; co-purifies with lipoprotein; with Lipoprotein-releasing system transmembrane protein LolC; Lipoprotein-releasing system transmembrane protein LolE
T1 sequence (P75957 1-233): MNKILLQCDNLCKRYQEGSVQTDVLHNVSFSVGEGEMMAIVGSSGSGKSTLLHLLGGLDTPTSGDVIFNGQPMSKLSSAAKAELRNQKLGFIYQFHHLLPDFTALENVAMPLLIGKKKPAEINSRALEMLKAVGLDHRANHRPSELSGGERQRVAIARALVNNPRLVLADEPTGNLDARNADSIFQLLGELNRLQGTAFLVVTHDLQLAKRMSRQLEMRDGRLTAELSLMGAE
T1 sequence (P0ADC3 1-399 partner): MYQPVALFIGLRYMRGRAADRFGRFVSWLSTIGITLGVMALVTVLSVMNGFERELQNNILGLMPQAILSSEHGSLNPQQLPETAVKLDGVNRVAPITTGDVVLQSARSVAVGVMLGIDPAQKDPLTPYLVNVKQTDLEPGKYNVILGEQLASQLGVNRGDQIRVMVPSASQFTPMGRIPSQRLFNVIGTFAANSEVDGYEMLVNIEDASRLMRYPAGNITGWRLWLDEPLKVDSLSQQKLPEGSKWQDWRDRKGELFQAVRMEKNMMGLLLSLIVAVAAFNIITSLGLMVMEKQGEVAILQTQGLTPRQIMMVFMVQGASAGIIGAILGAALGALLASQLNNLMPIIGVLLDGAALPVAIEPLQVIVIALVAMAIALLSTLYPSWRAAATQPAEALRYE
T1 sequence (P75958 2-414 partner): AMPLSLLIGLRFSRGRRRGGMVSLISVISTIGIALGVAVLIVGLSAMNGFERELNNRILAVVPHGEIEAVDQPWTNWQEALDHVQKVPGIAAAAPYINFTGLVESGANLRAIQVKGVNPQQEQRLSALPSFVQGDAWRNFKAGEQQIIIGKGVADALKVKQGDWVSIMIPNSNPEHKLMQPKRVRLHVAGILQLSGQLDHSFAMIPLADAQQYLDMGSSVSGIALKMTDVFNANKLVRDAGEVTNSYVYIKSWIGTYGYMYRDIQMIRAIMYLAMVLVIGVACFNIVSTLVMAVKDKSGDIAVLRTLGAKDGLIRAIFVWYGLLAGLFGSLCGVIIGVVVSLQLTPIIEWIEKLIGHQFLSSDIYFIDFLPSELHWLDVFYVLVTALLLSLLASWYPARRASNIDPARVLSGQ
Assay: colorimetric phosphate-release ATPase assay
Format: biochemical
Conditions: LolCDE in nanodiscs; 4 mM ATP, 4 mM MgCl2, pH 8, 37 °C; traps ADP-vanadate in the ATP site

## [O]=[V]([OH])([OH])[OH] [orthovanadate]
  % inhibition at 0.1 mM: ~ 90%
